We go through 24 compounds from patent publication US8283361B2 (AstraZeneca AB, priority 2008, dated 2012).

The structures appear in SMILES notation.

This test has as its target S. aureus GyrB ATPase (Staphylococcus aureus, UniProt P0A0K8). In words: biochemical. Conditions: compound at 1 μM; one value per test if tested more than once; read-out: % Inhibition of S. aureus GyrB ATPase. Put shortly: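 IC50 values derive from 10-point titrations of compound (in DMSO). Phosphate formed from 250 μM ATP was quantified by acidic molybdate/malachite green after quenching.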

Chain of S. aureus GyrB ATPase (P0A0K8 whole entry): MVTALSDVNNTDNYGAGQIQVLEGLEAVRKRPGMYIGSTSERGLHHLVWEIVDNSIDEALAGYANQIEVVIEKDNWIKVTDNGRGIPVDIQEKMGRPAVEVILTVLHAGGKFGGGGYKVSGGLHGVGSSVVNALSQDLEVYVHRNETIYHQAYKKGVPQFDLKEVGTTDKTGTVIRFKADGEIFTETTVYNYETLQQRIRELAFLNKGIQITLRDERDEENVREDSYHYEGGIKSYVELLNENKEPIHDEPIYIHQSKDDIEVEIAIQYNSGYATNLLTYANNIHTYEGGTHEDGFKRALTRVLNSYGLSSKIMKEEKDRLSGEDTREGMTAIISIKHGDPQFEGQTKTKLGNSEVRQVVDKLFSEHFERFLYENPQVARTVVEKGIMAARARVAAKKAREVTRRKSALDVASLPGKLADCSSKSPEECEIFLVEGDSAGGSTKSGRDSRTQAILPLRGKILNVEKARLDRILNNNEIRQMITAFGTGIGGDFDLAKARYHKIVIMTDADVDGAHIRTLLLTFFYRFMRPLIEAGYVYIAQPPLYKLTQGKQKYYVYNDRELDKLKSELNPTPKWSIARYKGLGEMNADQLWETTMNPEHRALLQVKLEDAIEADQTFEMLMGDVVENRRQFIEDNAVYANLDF
Chain of S. aureus GyrB ATPase (P0AES4 whole entry, further chain): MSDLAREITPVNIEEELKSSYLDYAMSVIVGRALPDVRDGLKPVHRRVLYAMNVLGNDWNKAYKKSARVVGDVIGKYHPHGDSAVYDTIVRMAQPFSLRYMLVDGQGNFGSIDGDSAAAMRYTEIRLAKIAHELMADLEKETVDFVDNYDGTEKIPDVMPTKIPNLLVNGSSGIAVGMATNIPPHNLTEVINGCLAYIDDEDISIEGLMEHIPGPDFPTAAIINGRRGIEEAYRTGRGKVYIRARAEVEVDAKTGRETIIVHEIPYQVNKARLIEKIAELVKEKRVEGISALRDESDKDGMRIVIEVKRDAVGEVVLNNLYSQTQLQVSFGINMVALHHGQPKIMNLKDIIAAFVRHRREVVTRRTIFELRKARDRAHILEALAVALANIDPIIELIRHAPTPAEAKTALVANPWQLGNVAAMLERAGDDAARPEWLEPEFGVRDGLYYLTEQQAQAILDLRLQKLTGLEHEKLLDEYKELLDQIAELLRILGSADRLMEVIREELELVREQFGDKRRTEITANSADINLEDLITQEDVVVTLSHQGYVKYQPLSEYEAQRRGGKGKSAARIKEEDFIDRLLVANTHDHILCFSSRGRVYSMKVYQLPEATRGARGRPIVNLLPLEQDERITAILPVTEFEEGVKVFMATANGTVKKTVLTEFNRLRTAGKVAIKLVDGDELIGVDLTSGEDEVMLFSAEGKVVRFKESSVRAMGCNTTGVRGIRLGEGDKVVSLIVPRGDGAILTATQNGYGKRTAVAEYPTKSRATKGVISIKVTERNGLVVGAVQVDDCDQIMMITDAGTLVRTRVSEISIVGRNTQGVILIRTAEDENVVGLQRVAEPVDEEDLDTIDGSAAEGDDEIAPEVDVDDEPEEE

As for `CCCNC(=O)Nc1cc(-c2nc(C(F)(F)F)cs2)c(-c2ccc3c(c2)c(=O)c(C(=O)N2CCNCC2)cn3C2CN(C)C2)cn1` [Example 166, 1-(5-(1-(1-methylazetidin-3-yl)-4-oxo-3-(piperazine-1-carbonyl)-1,4-dihydroquinolin-6-yl)-4-(4-(trifluoromethyl)thiazol-2-yl)pyridin-2-yl)-3-propylurea], the inhibition at 1 µM came to 104%.

Take `CCNC(=O)Nc1cc(-c2nc(C(F)(F)F)cs2)c(-c2ccc3c(c2)c(=O)c(C(=O)N2CCN(C)CC2)cn3C2CN(C)C2)cn1` [Example 167, 1-ethyl-3-(5-(1-(1-methylazetidin-3-yl)-3-(4-methylpiperazine-1-carbonyl)-4-oxo-1,4-dihydroquinolin-6-yl)-4-(4-(trifluoromethyl)thiazol-2-yl)pyridin-2-yl)urea]: the inhibition at 1 µM worked out at 109%.

As to `CCCNC(=O)Nc1cc(-c2nc(C(F)(F)F)cs2)c(-c2ccc3c(c2)c(=O)c(C(=O)N2CCN(C(C)=O)CC2)cn3C2CN(C)C2)cn1` [Example 168, 1-(5-(3-(4-acetylpiperazine-1-carbonyl)-1-(1-methylazetidin-3-yl)-4-oxo-1,4-dihydroquinolin-6-yl)-4-(4-(trifluoromethyl)thiazol-2-yl)pyridin-2-yl)-3-propylurea], the inhibition at 1 µM amounted to 102%.

On to `CCNC(=O)Nc1cc(-c2nc(C(F)(F)F)cs2)c(-c2ccc3c(c2)c(=O)c(C(=O)N2CCN(C(C)=O)CC2)cn3C2CN(C)C2)cn1` [Example 169, 1-(5-(3-(4-acetylpiperazine-1-carbonyl)-1-(1-methylazetidin-3-yl)-4-oxo-1,4-dihydroquinolin-6-yl)-4-(4-(trifluoromethyl)thiazol-2-yl)pyridin-2-yl)-3-ethylurea], for which the inhibition at 1 µM is 105%.

As for `CCCNC(=O)Nc1cc(-c2nc(C(F)(F)F)cs2)c(-c2ccc3c(c2)c(=O)c(C(=O)N2CCN(S(C)(=O)=O)CC2)cn3C2CN(C)C2)cn1` [Example 170, 1-(5-(1-(1-methylazetidin-3-yl)-3-(4-(methylsulfonyl)piperazine-1-carbonyl)-4-oxo-1,4-dihydroquinolin-6-yl)-4-(4-(trifluoromethyl)thiazol-2-yl)pyridin-2-yl)-3-propylurea], the inhibition at 1 µM was found to be 102%.

As to `CCNC(=O)Nc1cc(-c2nc(C(F)(F)F)cs2)c(-c2ccc3c(c2)c(=O)c(C(=O)N2CCNCC2)cn3C2CN(C)C2)cn1` [Example 171, 1-ethyl-3-(5-(1-(1-methylazetidin-3-yl)-4-oxo-3-(piperazine-1-carbonyl)-1,4-dihydroquinolin-6-yl)-4-(4-(trifluoromethyl)thiazol-2-yl)pyridin-2-yl)urea], the inhibition at 1 µM is 112%.

For `CCCNC(=O)Nc1cc(-c2nc(C(F)(F)F)cs2)c(-c2ccc3c(c2)c(=O)c(C(=O)N2CCN(C)CC2)cn3C2CN(C)C2)cn1` [Example 172, 1-(5-(1-(1-methylazetidin-3-yl)-3-(4-methylpiperazine-1-carbonyl)-4-oxo-1,4-dihydroquinolin-6-yl)-4-(4-(trifluoromethyl)thiazol-2-yl)pyridin-2-yl)-3-propylurea], the inhibition at 1 µM amounted to 107%.

In the case of `CC(C)NC(=O)Nc1cc(-c2nc(C(F)(F)F)cs2)c(-c2ccc3c(c2)c(=O)c(C(=O)O)cn3CCN(C)C)cn1` [Example 189, 1-(2-(dimethylamino)ethyl)-7-(6-(3-isopropylureido)-4-(4-(trifluoromethyl)thiazol-2-yl)pyridin-3-yl)-4-oxo-1,4-dihydroquinoline-3-carboxylate], the inhibition at 1 µM worked out at 100%.

Regarding `CCCNC(=O)Nc1cc(-c2nc(C(F)(F)F)cs2)c(-c2ccc3c(c2)c(=O)c(C(=O)O)cn3CCOC)cn1` [Example 191, 1-(2-methoxyethyl)-4-oxo-6-(6-(3-propylureido)-4-(4-(trifluoromethyl)thiazol-2-yl)pyridin-3-yl)-1,4-dihydroquinoline-3-carboxylic acid], the inhibition at 1 µM came to 94%.

In the case of `CCCNC(=O)Nc1cc(-c2nc(C(F)(F)F)cs2)c(-c2ccc3c(c2)c(=O)c(C(=O)O)cn3C2CCOCC2)cn1` [Example 192, 4-oxo-6-(6-(3-propylureido)-4-(4-(trifluoromethyl)thiazol-2-yl)pyridin-3-yl)-1-(tetrahydro-2H-pyran-4-yl)-1,4-dihydroquinoline-3-carboxylic acid], the inhibition at 1 µM was 92%.

For the compound `CCCNC(=O)Nc1cc(-c2nc(C(F)(F)F)cs2)c(-c2ccc3c(c2)c(=O)c(C(=O)O)cn3CCN2CCOCC2)cn1` [Example 193, 1-(2-morpholinoethyl)-4-oxo-6-(6-(3-propylureido)-4-(4-(trifluoromethyl)thiazol-2-yl)pyridin-3-yl)-1,4-dihydroquinoline-3-carboxylic acid], the inhibition at 1 µM is 93%.

Regarding `COCCn1cc(C(=O)O)c(=O)c2cc(-c3cnc(NC(=O)NC(C)C)cc3-c3nc(C(F)(F)F)cs3)ccc21` [Example 194, 6-(6-(3-isopropylureido)-4-(4-(trifluoromethyl)thiazol-2-yl)pyridin-3-yl)-1-(2-methoxyethyl)-4-oxo-1,4-dihydroquinoline-3-carboxylic acid], the inhibition at 1 µM amounted to 93%.

For `CC(C)NC(=O)Nc1cc(-c2nc(C(F)(F)F)cs2)c(-c2ccc3c(c2)c(=O)c(C(=O)O)cn3CCN2CCOCC2)cn1` [Example 195, 6-(6-(3-isopropylureido)-4-(4-(trifluoromethyl)thiazol-2-yl)pyridin-3-yl)-1-(2-morpholinoethyl)-4-oxo-1,4-dihydroquinoline-3-carboxylic acid], the inhibition at 1 µM was found to be 98%.

As for `CC(C)NC(=O)Nc1cc(-c2nc(C(F)(F)F)cs2)c(-c2ccc3c(c2)c(=O)c(C(=O)O)cn3CCC2CCOCC2)cn1` [Example 197, 7-(6-(3-isopropylureido)-4-(4-(trifluoromethyl)thiazol-2-yl)pyridin-3-yl)-4-oxo-1-(2-(tetrahydro-2H-pyran-4-yl)ethyl)-1,4-dihydroquinoline-3-carboxylate], the inhibition at 1 µM was 116%.

`CCCNC(=O)Nc1cc(-c2nc(C(F)(F)F)cs2)c(-c2ccc3c(c2)c(=O)c(C(=O)O)cn3CCC2CCN(C)CC2)cn1` [Example 198, 1-(2-(1-methylpiperidin-4-yl)ethyl)-4-oxo-6-(6-(3-propylureido)-4-(4-(trifluoromethyl)thiazol-2-yl)pyridin-3-yl)-1,4-dihydroquinoline-3-carboxylic acid]: the inhibition at 1 µM was 108%.

With `CC(C)NC(=O)Nc1cc(-c2nc(C(F)(F)F)cs2)c(-c2ccc3c(c2)c(=O)c(C(=O)O)cn3C2CCOCC2)cn1` [Example 199, 6-(6-(3-isopropylureido)-4-(4-(trifluoromethyl)thiazol-2-yl)pyridin-3-yl)-4-oxo-1-(tetrahydro-2H-pyran-4-yl)-1,4-dihydroquinoline-3-carboxylic acid], the inhibition at 1 µM amounted to 103%.

Turning to `CCCNC(=O)Nc1cc(-c2nc(C(F)(F)F)cs2)c(-c2ccc3c(c2)c(=O)c(C(=O)O)cn3CCC2CCOCC2)cn1` [Example 200, 4-oxo-6-(6-(3-propylureido)-4-(4-(trifluoromethyl)thiazol-2-yl)pyridin-3-yl)-1-(2-(tetrahydro-2H-pyran-4-yl)ethyl)-1,4-dihydroquinoline-3-carboxylic acid], the inhibition at 1 µM came to 111%.

For `CC(C)NC(=O)Nc1cc(-c2nc(C(F)(F)F)cs2)c(-c2ccc3c(c2)c(=O)c(C(=O)O)cn3CCC2CCN(C)CC2)cn1` [Example 202, 6-(6-(3-isopropylureido)-4-(4-(trifluoromethyl)thiazol-2-yl)pyridin-3-yl)-1-(2-(1-methylpiperidin-4-yl)ethyl)-4-oxo-1,4-dihydroquinoline-3-carboxylic acid], the inhibition at 1 µM was determined as 103%.

As to `CCCNC(=O)Nc1cc(-c2nc(C(F)(F)F)cs2)c(-c2ccc3c(c2)c(=O)c(C(=O)NCCO)cn3CCN(C)C)cn1` [Example 203, 1-(2-(dimethylamino)ethyl)-N-(2-hydroxyethyl)-4-oxo-6-(6-(3-propylureido)-4-(4-(trifluoromethyl)thiazol-2-yl)pyridin-3-yl)-1,4-dihydroquinoline-3-carboxamide], the inhibition at 1 µM is 87%.

With `CCCNC(=O)Nc1cc(-c2nc(C(F)(F)F)cs2)c(-c2ccc3c(c2)c(=O)c(C(=O)NCCO)cn3CCN2CCOCC2)cn1` [Example 205, N-(2-hydroxyethyl)-1-(2-morpholinoethyl)-4-oxo-6-(6-(3-propylureido)-4-(4-(trifluoromethyl)thiazol-2-yl)pyridin-3-yl)-1,4-dihydroquinoline-3-carboxamide], the inhibition at 1 µM was found to be 94%.

Consider `CCCNC(=O)Nc1cc(-c2nc(C(F)(F)F)cs2)c(-c2ccc3c(c2)c(=O)c(C(=O)NCCO)cn3C2CCOCC2)cn1` [Example 206, N-(2-hydroxyethyl)-4-oxo-6-(6-(3-propylureido)-4-(4-(trifluoromethyl)thiazol-2-yl)pyridin-3-yl)-1-(tetrahydro-2H-pyran-4-yl)-1,4-dihydroquinoline-3-carboxamide], for which the inhibition at 1 µM stood at 92%.

On to `CCCNC(=O)Nc1cc(-c2nc(C(F)(F)F)cs2)c(-c2ccc3c(c2)c(=O)c(C(=O)NCCO)cn3CCOC)cn1` [Example 207, N-(2-hydroxyethyl)-1-(2-methoxyethyl)-4-oxo-6-(6-(3-propylureido)-4-(4-(trifluoromethyl)thiazol-2-yl)pyridin-3-yl)-1,4-dihydroquinoline-3-carboxamide], for which the inhibition at 1 µM was 93%.

With `COCCn1cc(C(=O)NCCO)c(=O)c2cc(-c3cnc(NC(=O)NC(C)C)cc3-c3nc(C(F)(F)F)cs3)ccc21` [Example 208, N-(2-hydroxyethyl)-6-(6-(3-isopropylureido)-4-(4-(trifluoromethyl)thiazol-2-yl)pyridin-3-yl)-1-(2-methoxyethyl)-4-oxo-1,4-dihydroquinoline-3-carboxamide], the inhibition at 1 µM amounted to 97%.

Turning to `CC(C)NC(=O)Nc1cc(-c2nc(C(F)(F)F)cs2)c(-c2ccc3c(c2)c(=O)c(C(=O)NCCO)cn3C2CCOCC2)cn1` [Example 210, N-(2-hydroxyethyl)-6-(6-(3-isopropylureido)-4-(4-(trifluoromethyl)thiazol-2-yl)pyridin-3-yl)-4-oxo-1-(tetrahydro-2H-pyran-4-yl)-1,4-dihydroquinoline-3-carboxamide], the inhibition at 1 µM is 93%.
